For data set [1], the target named is T1, Catechol O-methyltransferase (Rattus norvegicus, UniProt P22734).
T1 sequence (P22734 whole entry): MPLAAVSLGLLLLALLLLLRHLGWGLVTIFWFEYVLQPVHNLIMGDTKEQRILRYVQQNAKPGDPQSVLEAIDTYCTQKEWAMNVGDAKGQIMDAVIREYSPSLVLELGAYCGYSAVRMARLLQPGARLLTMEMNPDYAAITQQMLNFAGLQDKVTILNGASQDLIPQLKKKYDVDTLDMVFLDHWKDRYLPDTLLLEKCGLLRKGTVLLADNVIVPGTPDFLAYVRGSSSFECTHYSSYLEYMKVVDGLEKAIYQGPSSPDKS
As to the kind of experiment: In vitro inhibitory activity against catechol O-methyltransferase of rat brain using 3,4-dihydroxybenzoic acid as the substrate.

A short description of data set [2]: Inhibitory activity against Phenol sulfotransferase.
In data set [3] the target is T2, Aromatic-L-amino-acid decarboxylase (Sus scrofa, UniProt P80041).
T2 sequence (P80041 whole entry): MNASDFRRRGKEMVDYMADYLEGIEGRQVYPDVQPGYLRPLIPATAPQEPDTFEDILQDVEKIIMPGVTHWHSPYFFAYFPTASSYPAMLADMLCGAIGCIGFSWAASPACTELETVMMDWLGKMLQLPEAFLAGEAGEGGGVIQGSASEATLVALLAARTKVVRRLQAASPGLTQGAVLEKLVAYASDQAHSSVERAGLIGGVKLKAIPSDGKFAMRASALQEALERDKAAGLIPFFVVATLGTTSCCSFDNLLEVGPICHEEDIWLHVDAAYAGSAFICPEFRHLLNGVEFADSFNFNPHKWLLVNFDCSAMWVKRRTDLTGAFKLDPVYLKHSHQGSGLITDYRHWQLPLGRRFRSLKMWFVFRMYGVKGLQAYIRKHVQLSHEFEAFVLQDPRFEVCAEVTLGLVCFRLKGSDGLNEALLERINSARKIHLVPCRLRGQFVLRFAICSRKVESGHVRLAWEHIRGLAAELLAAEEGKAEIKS
As to the kind of experiment: Inhibitory activity against the dopamine decarboxylase.

Data set [4] concerns the target T3, Amine oxidase [flavin-containing] A (Mus musculus, UniProt Q64133).
T3 sequence (Q64133 whole entry): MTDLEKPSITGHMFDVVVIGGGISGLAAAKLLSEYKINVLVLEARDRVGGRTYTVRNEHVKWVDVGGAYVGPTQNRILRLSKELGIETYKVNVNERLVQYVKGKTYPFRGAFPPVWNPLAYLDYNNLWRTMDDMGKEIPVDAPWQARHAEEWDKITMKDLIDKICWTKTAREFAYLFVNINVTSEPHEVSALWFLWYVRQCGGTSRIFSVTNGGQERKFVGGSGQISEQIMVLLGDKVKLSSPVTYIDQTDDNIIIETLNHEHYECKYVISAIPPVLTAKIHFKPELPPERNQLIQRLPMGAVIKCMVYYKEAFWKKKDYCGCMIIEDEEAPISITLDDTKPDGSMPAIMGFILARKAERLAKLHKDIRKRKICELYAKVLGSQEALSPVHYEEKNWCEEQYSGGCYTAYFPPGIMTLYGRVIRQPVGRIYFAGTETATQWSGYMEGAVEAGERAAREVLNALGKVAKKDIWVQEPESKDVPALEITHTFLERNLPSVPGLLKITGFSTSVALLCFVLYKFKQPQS
As to the kind of experiment: Inhibitory activity against the Monoamine oxidase A.

Data set [5] addresses T4, Amine oxidase [flavin-containing] B (Rattus norvegicus, UniProt P19643).
T4 sequence (P19643 whole entry): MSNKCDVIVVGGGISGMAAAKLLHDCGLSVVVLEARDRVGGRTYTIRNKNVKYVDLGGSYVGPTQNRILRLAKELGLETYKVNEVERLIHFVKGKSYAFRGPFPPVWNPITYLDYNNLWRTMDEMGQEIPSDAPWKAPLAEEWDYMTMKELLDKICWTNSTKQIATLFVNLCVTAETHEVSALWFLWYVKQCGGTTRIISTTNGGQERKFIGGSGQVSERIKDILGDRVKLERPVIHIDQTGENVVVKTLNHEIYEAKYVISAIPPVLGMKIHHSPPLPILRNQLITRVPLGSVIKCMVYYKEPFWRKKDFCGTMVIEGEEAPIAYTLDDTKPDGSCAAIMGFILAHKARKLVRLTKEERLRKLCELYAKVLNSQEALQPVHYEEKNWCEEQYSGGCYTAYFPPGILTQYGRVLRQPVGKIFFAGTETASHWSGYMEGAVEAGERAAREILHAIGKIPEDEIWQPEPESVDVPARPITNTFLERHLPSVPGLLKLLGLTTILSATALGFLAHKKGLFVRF
As to the kind of experiment: Inhibitory activity against the Monoamine oxidase B.

The target of a further data set is T5, Tyrosine 3-monooxygenase (Bos taurus, UniProt P17289).
T5 sequence (P17289 whole entry): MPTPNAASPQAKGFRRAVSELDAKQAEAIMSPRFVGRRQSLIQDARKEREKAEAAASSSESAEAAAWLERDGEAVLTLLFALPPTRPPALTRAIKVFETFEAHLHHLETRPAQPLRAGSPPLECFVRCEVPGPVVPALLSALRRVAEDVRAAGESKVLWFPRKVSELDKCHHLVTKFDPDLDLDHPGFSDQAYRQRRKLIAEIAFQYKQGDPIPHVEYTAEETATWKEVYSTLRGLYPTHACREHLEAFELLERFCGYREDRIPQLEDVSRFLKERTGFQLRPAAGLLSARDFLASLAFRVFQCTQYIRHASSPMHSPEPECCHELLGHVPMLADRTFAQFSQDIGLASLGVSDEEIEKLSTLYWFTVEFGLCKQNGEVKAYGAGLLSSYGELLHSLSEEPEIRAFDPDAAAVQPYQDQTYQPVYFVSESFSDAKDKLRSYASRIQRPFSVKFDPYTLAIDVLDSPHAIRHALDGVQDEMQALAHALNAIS
In words: Inhibitory activity against the tyrosine hydroxylase.

In data set [6] the target is T6, Dopamine beta-hydroxylase (Homo sapiens, UniProt P09172).
T6 sequence (P09172 whole entry): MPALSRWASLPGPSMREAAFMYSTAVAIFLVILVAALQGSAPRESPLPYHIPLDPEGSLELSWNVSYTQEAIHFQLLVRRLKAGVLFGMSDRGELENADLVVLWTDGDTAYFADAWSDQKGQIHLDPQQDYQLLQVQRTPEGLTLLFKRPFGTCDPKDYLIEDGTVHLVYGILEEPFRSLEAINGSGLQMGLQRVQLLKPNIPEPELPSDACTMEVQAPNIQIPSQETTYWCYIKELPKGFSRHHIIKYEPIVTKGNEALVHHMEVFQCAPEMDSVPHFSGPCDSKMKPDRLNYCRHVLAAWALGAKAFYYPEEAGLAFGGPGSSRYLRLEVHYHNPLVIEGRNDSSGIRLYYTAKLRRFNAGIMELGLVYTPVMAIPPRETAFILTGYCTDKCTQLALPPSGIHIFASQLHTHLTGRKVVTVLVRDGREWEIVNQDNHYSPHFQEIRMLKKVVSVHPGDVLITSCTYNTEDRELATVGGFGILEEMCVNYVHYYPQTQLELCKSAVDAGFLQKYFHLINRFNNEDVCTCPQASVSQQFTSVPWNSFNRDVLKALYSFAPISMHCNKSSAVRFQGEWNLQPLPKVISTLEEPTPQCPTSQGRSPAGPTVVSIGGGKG
As to the kind of experiment: Inhibitory activity against the dopamine beta hydroxylase.

The species named for data set [7] is Rattus norvegicus. In words: Compound was tested for acute oral toxicity in Wistar rats. Type of data set: organism-based. Particulars: in vivo.
Data set [8] relates to Rattus norvegicus. As to the kind of experiment: Inhibition of formation of 3OMD in rat serum by 80 %, when compound was administered in combination with L-Dopa and carbidopa. Type of data set: functional.

Molecules are shown by their SMILES.

The values that follow come from ChEMBL document CHEMBL1124446, “Synthesis of some novel potent and selective catechol O-methyltransferase inhibitors” (J Med Chem, 1989).

The IC50 is the concentration at which inhibition is half-maximal. In [1], `O=C(NC12CC3CC(CC(C3)C1)C2)c1cc(O)c(O)cc1[N+](=O)[O-]` came in with an IC50 of 1100 nM.

Compound `O=C(O)CCCCc1cc(O)c(O)c([N+](=O)[O-])c1` yielded an IC50 in [1] of 90 nM.

In turn, `CN(C)C(=O)/C(C#N)=C/c1cc(O)c(O)c([N+](=O)[O-])c1` yielded an IC50 in [1] of 18 nM.

For the compound `O=[N+]([O-])c1cc(O)c(O)c([N+](=O)[O-])c1` [3,5-DINITROCATECHOL (OR-486)], in data set [2], the midpoint of inhibition, the IC50, lay at 150000 nM.

`O=C(NC12CC3CC(CC(C3)C1)C2)c1cc(O)c(O)cc1Cl` returned an IC50 in data set [1] of 2700 nM.

For `COc1cc(C(=O)/C=C/c2cc(O)c(O)c([N+](=O)[O-])c2)cc(OC)c1OC`, the IC50 was 5 nM in data set [1]; more than 50000 nM in data set [3]; more than 50000 nM in data set [4]; more than 50000 nM in [5]; 21000 nM on Tyrosine 3-monooxygenase; more than 50000 nM in data set [6].

For the compound `O=C(O)CCCCc1cc(O)c(O)c(Cl)c1`, in data set [1], half-maximal inhibition (IC50) was put at 8000 nM.

`O=[N+]([O-])c1cc(Cl)cc(O)c1O` displayed an IC50 in data set [1] of 25 nM.

In data set [1], `CS(=O)(=O)c1cc(C=O)cc(O)c1O` had an IC50 of 20000 nM.

The compound `O=C(O)c1cc(O)c(O)c([N+](=O)[O-])c1` returned an IC50 in [1] of 620 nM.

On to `O=Cc1cc(O)c(O)c([N+](=O)[O-])c1` [3,4-DIHYDROXY-5-NITROBENZALDEHYDE], for which the IC50 in data set [1] amounted to 24 nM.

Take `O=Cc1cc(O)c(O)c(C(F)(F)F)c1`: inhibition in data set [1] was half-maximal at 2300 nM (IC50).

`CCOC(=O)/C(C#N)=C/c1cc(O)c(O)c([N+](=O)[O-])c1` registered an IC50 in data set [1] of 50 nM.

For `O=C(NC12CC3CC(CC(C3)C1)C2)c1cc(O)c(O)c(Cl)c1`, the IC50 in data set [1] turned out to be 400 nM.

`O=C(NC12CC3CC(CC(C3)C1)C2)c1ccc(O)c(O)c1Cl` showed an IC50 in data set [1] of 12000 nM.

Regarding `N#Cc1cc(O)c(O)c([N+](=O)[O-])c1`, it took 30 nM to reach half-maximal inhibition in data set [1] (IC50).

Take `O=C(/C=C/c1cc(O)c(O)c([N+](=O)[O-])c1)c1ccccc1`: the IC50 in data set [1] was 6 nM; in [3], more than 50000 nM; in [4], more than 50000 nM; in data set [5], more than 50000 nM; against Tyrosine 3-monooxygenase it was 50000 nM; in [6] it was more than 50000 nM.

On to `CC(=O)C(=Cc1cc(O)c(O)c([N+](=O)[O-])c1)C(C)=O` [NITECAPONE], for which the Toxicity in the data set filed under Rattus norvegicus [7] is 2500 mg/kg. In addition, the Oral dose in the data set with Rattus norvegicus [8] was 30 mg/kg. Besides, the IC50 turned out to be 18 nM in data set [1] and 210000 nM in data set [2].

Take `O=[N+]([O-])c1cc(CO)cc(O)c1O`: the IC50 in data set [1] was found to be 180 nM.

Turning to `N#CC(C#N)=Cc1cc(O)c(O)c([N+](=O)[O-])c1`, the IC50 in data set [1] was found to be 20 nM.

Consider `CC(=O)c1cc(O)c(O)c([N+](=O)[O-])c1`, for which the IC50 in [1] was 16 nM; in [2] it was 125000 nM.

In data set [1], `O=C1/C(=C/c2cc(O)c(O)c([N+](=O)[O-])c2)CC/C1=C\c1cc(O)c(O)c([N+](=O)[O-])c1` yielded an IC50 of 3 nM.

`N#Cc1cc(C=O)cc(O)c1O` yielded an IC50 in data set [1] of 160 nM.

In data set [1], `N#Cc1cc(C(=O)NC23CC4CC(CC(C4)C2)C3)cc(O)c1O` had an IC50 of 90 nM.

`CC(C)C(=O)c1ccc(O)c(O)c1`: the IC50 was 6000 nM in [1]; more than 50000 nM in data set [3]; more than 50000 nM in data set [4]; more than 50000 nM in data set [5]; 24000 nM against Tyrosine 3-monooxygenase; more than 50000 nM in [6].

As to `CC(=O)/C(C)=C/c1cc(O)c(O)c([N+](=O)[O-])c1`, the IC50 in data set [1] turned out to be 12 nM.

In [1], `O=C(NC12CC3CC(CC(C3)C1)C2)c1cc(O)c(O)c([N+](=O)[O-])c1` showed an IC50 of 19 nM.

In turn, `CC(=O)C(=Cc1cc(O)c(O)c(C(F)(F)F)c1)C(C)=O` had an IC50 in [1] of 1500 nM.

In the case of `O=Cc1cc(O)c(O)c(C=O)c1`, in data set [1], inhibition was half-maximal at 160 nM (IC50).
